Values of other authors, collected in PMC9923514 (Journal of chemical information and modeling, 2022).

Key:
ZIKV NS5 RdRp = ZIKV NS5 RdRp (Zika virus, UniProt A0A024B7W1); conditions: for IC50: read-out: NS5 RdRp IC50
ZIKV NS2B-NS3pro = ZIKV NS2B-NS3pro (Zika virus, UniProt A0A024B7W1); conditions: read-out: NS2B-NS3pro IC50; allosteric inhibitor
Sequence of ZIKV NS2B-NS3pro (A0A024B7W1 1503-1680): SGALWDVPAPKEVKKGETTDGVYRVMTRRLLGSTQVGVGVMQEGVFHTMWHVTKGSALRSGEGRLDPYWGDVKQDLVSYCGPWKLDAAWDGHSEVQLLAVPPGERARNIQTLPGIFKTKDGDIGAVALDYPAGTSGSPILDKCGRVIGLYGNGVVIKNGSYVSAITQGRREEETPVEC
Sequence of ZIKV NS2B-NS3pro (A0A024B7W1 1373-1502): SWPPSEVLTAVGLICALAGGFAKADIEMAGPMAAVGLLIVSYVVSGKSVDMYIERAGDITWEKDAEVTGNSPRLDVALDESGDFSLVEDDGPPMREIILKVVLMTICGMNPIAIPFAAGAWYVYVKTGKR

Sequence of ZIKV NS5 RdRp (A0A024B7W1 2521-3423): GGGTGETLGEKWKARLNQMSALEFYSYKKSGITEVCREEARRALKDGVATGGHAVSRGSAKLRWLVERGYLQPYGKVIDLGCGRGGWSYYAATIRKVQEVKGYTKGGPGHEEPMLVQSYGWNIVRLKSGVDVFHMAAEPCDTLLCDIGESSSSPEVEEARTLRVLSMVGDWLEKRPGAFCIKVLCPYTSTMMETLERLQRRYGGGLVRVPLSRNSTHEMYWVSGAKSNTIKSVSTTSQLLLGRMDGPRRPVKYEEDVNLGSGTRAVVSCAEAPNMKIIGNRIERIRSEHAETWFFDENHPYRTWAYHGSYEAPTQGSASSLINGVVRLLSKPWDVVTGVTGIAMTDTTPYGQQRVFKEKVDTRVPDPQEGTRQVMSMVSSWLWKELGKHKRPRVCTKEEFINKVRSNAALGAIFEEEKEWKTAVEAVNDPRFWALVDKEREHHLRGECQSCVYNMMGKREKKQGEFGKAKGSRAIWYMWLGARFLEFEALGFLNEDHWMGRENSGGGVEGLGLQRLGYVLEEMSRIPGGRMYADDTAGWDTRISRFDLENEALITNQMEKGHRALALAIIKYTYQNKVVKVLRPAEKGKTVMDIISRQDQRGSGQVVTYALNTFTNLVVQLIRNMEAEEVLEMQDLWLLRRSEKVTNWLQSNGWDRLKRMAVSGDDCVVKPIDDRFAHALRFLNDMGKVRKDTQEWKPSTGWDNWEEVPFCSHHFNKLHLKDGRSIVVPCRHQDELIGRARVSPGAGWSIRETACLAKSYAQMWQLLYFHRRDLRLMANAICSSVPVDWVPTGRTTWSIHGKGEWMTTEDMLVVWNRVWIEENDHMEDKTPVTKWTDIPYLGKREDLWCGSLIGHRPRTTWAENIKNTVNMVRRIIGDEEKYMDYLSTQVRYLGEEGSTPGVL

SMILES	IC50 (ZIKV NS5 RdRp) [nM]	also measured
CCCCCOCc1c(Nc2ccc(S(N)(=O)=O)cc2)nc(N2CCOCC2)nc1C(=O)NCCOc1ccccc1 [2-morpholino-5-((pentyloxy)methyl)-N-(2-phenoxyethyl)-6-((4-sulfamoylphenyl)amino)pyrimidine-4-carboxamide]	2400	–
Nc1cc(N)c(N=Nc2ccc(S(=O)(=O)Nc3nccs3)cc2)cc1N=Nc1ccc(S(=O)(=O)Nc2nccs2)cc1 [NSC86314]	–	IC50 (ZIKV NS2B-NS3pro): 1120 ± 110 nM
O=C(NC(=S)Nc1ccc(N2CCN(C(=O)c3cccs3)CC2)cc1)c1sc2ccccc2c1Cl [TBP, 3-chloro-N-[({4-[4-(2-thienylcarbonyl)-1-piperazinyl]phenyl}amino)carbonothioyl]-1-benzothiophene-2-carboxamide]	94	–
O[C@H]1[C@H]2c3cc4c(cc3CN3CCC(=C[C@@H]1O)[C@H]23)OCO4 [lycorine]	–	NS5 RdRp inhibition (ZIKV NS5 RdRp; at 50 μM): 60%
